Columns and labels:
[1] = target: Phosphatidylinositol 4,5-bisphosphate 3-kinase catalytic subunit alpha isoform (Homo sapiens, UniProt P42336); assay: Inhibition of PI3K alpha by continuous TR-FRET assay
[2] = target: T1, Phosphatidylinositol 4,5-bisphosphate 3-kinase catalytic subunit beta isoform (Homo sapiens, UniProt P42338); assay: Inhibition of PI3K beta by continuous TR-FRET assay
[3] = target: T2, Phosphatidylinositol 4,5-bisphosphate 3-kinase catalytic subunit delta isoform (Homo sapiens, UniProt O00329); assay: Inhibition of PI3K delta by continuous TR-FRET assay
T2 sequence (O00329 whole entry): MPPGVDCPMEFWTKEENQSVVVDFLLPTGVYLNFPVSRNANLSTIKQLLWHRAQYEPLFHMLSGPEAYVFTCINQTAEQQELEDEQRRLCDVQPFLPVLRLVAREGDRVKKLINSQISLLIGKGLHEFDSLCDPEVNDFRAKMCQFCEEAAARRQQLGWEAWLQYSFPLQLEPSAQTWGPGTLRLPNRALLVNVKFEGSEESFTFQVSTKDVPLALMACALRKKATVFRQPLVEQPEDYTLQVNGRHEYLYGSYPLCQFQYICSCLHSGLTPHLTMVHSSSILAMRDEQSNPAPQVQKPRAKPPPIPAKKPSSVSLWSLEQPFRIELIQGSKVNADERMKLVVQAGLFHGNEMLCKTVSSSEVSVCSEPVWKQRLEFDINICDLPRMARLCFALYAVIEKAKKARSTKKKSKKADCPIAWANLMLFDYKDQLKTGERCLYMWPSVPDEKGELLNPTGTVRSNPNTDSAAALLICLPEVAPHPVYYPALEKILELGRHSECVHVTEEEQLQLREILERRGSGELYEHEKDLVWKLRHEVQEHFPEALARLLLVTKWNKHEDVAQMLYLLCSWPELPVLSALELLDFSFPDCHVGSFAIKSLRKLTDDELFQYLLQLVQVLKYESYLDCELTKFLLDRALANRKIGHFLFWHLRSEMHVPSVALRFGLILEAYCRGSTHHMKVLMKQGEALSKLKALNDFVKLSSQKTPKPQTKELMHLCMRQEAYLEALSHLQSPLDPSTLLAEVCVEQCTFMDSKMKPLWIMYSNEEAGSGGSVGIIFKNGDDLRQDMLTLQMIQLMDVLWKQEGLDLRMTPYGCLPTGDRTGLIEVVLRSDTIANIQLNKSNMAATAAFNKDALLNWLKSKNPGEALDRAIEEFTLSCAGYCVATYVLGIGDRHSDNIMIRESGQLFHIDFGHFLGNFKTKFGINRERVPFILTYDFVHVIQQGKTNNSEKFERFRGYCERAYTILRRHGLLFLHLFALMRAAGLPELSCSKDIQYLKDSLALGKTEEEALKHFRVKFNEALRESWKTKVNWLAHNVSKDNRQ

[4] = target: Phosphatidylinositol 4,5-bisphosphate 3-kinase catalytic subunit gamma isoform (Homo sapiens, UniProt P48736); assay: Inhibition of PI3K gamma by continuous TR-FRET assay
Sequence of Phosphatidylinositol 4,5-bisphosphate 3-kinase catalytic subunit gamma isoform (P48736 whole entry, canonical isoform): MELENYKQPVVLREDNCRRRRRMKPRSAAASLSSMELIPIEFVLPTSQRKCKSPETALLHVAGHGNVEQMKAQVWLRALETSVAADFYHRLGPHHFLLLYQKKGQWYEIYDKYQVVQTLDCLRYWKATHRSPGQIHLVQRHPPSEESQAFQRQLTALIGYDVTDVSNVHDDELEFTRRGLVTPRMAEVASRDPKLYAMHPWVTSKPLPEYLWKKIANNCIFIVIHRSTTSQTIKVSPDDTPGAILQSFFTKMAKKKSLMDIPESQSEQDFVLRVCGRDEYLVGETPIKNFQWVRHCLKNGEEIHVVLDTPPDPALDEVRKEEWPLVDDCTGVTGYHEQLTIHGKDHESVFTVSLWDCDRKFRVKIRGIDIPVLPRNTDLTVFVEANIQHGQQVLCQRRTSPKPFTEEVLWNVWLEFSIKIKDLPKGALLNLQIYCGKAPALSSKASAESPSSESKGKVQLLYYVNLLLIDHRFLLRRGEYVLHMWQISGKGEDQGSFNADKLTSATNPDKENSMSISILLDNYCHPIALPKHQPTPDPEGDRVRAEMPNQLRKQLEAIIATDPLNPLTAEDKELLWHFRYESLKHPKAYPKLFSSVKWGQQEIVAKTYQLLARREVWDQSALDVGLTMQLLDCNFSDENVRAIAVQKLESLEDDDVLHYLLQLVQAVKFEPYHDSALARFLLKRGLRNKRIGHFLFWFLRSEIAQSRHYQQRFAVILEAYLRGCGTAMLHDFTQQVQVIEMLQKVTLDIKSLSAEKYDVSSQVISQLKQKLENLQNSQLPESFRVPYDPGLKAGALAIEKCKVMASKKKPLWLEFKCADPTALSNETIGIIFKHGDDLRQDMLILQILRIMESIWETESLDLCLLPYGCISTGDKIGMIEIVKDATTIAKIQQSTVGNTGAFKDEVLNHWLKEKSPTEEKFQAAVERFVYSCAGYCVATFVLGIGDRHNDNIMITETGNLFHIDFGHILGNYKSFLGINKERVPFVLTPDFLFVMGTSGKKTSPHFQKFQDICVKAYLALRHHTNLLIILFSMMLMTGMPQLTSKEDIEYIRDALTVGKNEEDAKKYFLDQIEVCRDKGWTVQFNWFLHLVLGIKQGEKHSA

[5] = target: T1, Phosphatidylinositol 4,5-bisphosphate 3-kinase catalytic subunit beta isoform; assay: Inhibition of PI3K beta in human PTEN-deficient MDA-MB-468 cells assessed as inhibition of Akt Ser473 phosphorylation; type: cell-based
MDA-MB-468 = assay: Antiproliferative activity against PTEN-deficient human MDA-MB-468 cells; type: functional
[6] = Half life in CD mouse at 0.3 mg/kg, iv; type: ADME, organism-based; parameters: dose 0.3 mg/kg, route intravenous; settings: in vivo
[7] = Volume of distribution at steady state in CD mouse at 0.3 mg/kg, iv; type: ADME, organism-based; parameters: dose 0.3 mg/kg, route intravenous; settings: in vivo, read-out: Vdss
[8] = Clearance in CD mouse at 0.3 mg/kg, iv; type: ADME, organism-based; parameters: dose 0.3 mg/kg, route intravenous; settings: in vivo
Mus musculus = assay: Dose normalized AUC in CD mouse at 100 mg/kg, po; type: ADME, organism-based; parameters: dose 100 mg/kg, route oral; settings: in vivo
[9] = Oral bioavailability in CD mouse at 100 mg/kg; type: ADME, organism-based; settings: in vivo

Sequence of Phosphatidylinositol 4,5-bisphosphate 3-kinase catalytic subunit alpha isoform (P42336 whole entry, canonical isoform): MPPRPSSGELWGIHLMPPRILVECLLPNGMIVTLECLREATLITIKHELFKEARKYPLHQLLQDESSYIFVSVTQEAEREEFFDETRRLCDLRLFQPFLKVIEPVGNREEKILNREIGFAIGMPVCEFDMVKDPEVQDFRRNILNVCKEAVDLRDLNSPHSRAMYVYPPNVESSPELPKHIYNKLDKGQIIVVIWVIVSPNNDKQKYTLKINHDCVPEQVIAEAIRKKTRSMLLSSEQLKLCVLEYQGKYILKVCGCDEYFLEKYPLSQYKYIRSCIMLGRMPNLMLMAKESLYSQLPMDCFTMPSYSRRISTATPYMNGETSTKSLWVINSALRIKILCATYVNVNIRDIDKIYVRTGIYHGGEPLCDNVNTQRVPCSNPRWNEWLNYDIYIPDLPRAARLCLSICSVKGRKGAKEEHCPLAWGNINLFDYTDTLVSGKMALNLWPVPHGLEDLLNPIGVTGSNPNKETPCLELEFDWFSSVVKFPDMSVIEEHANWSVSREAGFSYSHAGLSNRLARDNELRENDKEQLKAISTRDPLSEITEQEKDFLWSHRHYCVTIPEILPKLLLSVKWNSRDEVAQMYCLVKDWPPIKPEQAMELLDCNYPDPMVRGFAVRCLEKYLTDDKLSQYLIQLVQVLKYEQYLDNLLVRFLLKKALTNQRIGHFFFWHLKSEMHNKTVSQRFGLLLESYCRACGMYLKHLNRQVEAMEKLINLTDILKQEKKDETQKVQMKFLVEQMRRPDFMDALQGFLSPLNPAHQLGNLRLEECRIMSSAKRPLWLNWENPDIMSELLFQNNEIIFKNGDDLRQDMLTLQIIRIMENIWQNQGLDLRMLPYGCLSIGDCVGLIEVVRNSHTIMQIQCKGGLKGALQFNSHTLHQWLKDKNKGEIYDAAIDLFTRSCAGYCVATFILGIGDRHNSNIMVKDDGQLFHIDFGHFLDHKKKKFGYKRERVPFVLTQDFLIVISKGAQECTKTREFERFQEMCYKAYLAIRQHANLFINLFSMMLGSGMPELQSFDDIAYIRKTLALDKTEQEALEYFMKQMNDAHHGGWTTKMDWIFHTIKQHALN
T1 sequence (P42338 whole entry, canonical isoform): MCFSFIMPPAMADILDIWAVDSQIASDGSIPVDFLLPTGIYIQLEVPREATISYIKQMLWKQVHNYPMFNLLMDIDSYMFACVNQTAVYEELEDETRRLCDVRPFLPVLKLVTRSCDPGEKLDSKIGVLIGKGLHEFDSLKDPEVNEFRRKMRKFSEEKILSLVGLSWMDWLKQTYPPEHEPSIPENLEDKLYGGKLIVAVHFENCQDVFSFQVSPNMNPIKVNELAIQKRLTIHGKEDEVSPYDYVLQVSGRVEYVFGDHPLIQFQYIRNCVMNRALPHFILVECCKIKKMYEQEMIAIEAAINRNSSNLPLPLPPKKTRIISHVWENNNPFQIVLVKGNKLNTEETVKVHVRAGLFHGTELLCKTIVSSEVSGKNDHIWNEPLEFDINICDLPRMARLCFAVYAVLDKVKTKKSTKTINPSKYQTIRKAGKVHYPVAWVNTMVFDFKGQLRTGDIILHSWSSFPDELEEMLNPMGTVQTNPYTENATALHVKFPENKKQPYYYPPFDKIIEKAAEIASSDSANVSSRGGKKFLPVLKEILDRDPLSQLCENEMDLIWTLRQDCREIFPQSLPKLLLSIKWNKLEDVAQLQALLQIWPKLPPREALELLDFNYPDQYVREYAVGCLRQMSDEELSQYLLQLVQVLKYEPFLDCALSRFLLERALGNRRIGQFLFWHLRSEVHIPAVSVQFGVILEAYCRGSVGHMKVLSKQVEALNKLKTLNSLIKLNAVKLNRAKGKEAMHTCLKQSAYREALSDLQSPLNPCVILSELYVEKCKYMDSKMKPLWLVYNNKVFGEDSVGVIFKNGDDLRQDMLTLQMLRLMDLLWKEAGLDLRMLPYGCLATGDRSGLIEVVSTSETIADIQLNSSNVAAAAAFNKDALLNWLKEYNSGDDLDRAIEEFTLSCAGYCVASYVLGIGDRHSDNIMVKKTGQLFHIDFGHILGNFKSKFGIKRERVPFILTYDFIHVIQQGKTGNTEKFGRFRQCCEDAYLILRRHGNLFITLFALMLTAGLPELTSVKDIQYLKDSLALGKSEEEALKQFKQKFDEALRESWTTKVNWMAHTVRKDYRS

IC50 [1] [nM]	IC50 [2] [nM]	IC50 [3] [nM]	IC50 [4] [nM]	EC50 [5] [nM]	GI50 (MDA-MB-468) [nM]	half-life [6] [h]	Vd [7] [L/kg]	clearance [8] [mL/min/kg]	AUC/dose (Mus musculus)	bioavailability [9] [%]	SMILES
2500	3	63	2000								Cc1c(Cn2c(Cc3ccccc3)nc(=O)c3sc(N4CCOCC4)nc32)cccc1C(F)(F)F
4000	3	63	1600								Cc1c(Cn2cnc(=O)c3sc(N4CCOCC4)nc32)cccc1C(F)(F)F
7900	320	2000	6300								O=c1ncn(Cc2ccccc2)c2nc(N3CCOCC3)sc12
1000	10	79	1300								O=c1ncn(Cc2cccc(Cl)c2Cl)c2nc(N3CCOCC3)sc12
630	0.2	3	250								Cc1c(Cn2c(CO)nc(=O)c3sc(N4CCOCC4)nc32)cccc1C(F)(F)F
2000	5	50	> 3200								Cc1c(Cl)cccc1Cn1c(=S)[nH]c(=O)c2sc(N3CCOCC3)nc21
2500	3	40	2500								Cc1c(Cl)cccc1Cn1cnc(=O)c2sc(N3CCOCC3)nc21
250	0.2	3	500	3	26						Cc1c(Cl)cccc1Cn1c(N)nc(=O)c2sc(N3CCOCC3)nc21
2500	25	250	2500								Cc1ccccc1Cn1cnc(=O)c2sc(N3CCOCC3)nc21
> 3200	79	320	> 790								O=c1ncn(Cc2cccc(Cl)c2)c2nc(N3CCOCC3)sc12
50000	8	500	> 6300								Cc1c(Cl)cccc1Cn1c(=O)[nH]c(=O)c2sc(N3CCOCC3)nc21
2000	0.5	10	1000	19	32						Cc1c(Cl)cccc1Cn1c(C)nc(=O)c2sc(N3CCOCC3)nc21
> 3200	50	500	4000								Cc1c(Cn2c(-c3ccccc3)nc(=O)c3sc(N4CCOCC4)nc32)cccc1C(F)(F)F
3200	790	2500	4000								O=c1ncn(Cc2ccsc2Cl)c2nc(N3CCOCC3)sc12
2000	0.3	10	2500								CSc1nc(=O)c2sc(N3CCOCC3)nc2n1Cc1cccc(Cl)c1C
> 4000	400	500	5000								CC(c1ccccc1)n1cnc(=O)c2sc(N3CCOCC3)nc21 (stereo not drawn)
> 2500	3	160	> 7900								Cc1c(Cn2c(CN)nc(=O)c3sc(N4CCOCC4)nc32)cccc1C(F)(F)F
1300	0.5	16	1000	9	43	0.75	2.6	48.6	192 ng/(hr.mL.mg.kg)	54	Cc1c(Cn2c(C3CC3)nc(=O)c3sc(N4CCOCC4)nc32)cccc1C(F)(F)F
500	0.1	2	250	6	8	1.9	3.35	29.4	264 ng/(hr.mL.mg.kg)	21	Cc1c(Cl)cccc1Cn1c(CO)nc(=O)c2sc(N3CCOCC3)nc21
> 4000	0.5	13	1300	16	23						CCc1nc(=O)c2sc(N3CCOCC3)nc2n1Cc1cccc(C(F)(F)F)c1C
> 2000	790	1000	3200								O=c1ncn(CCc2ccccc2)c2nc(N3CCOCC3)sc12
400	0.05	2	160								Cc1c(Cl)cccc1Cn1c(SCC(=O)O)nc(=O)c2sc(N3CCOCC3)nc21
1600	0.3	10	400	6	21						COc1nc(=O)c2sc(N3CCOCC3)nc2n1Cc1cccc(Cl)c1C
2500	160	> 790	7900								O=c1ncn(Cc2ccccc2Cl)c2nc(N3CCOCC3)sc12
